Test results: article PMC3779694 (Hepatology (Baltimore, Md.), 2011)
Entries after “also recorded” stand apart in the source; their conditions may differ.

Tests used:
adults with NASH [1] = experiment: Adverse events, phase 2 trial; type: in vivo, human; details: for Arthralgia / Asthenia / Back pain / Constipation / Diarrhea / Dizziness / Dry mouth / Dyspepsia / Fatigue / Gastroesophageal reflux disease / Headache / Nasopharyngitis / Nausea / No. of subjects with at least one AE / Pain in extremity / Somnolence / Total no. of events (AEs) / Abdominal pain / Abdominal pain upper: during treatment
hepatitis C subjects = details: human, in vivo; cited from earlier work
adults with NASH [2] = experiment: Serum caspase-3-cleaved CK-18 fragments; type: in vivo, human; details: mean (SD)
[3] = system: patients with chronic hepatitis C virus (HCV) infection; details: short-term treatment; cited from earlier work
adults with NASH [4] = experiment: Exploratory pharmacokinetic/pharmacodynamic modeling; type: in vivo, human; details: mean exposure with 40 mg; inhibitory Emax model
adults with NASH [5] = experiment: Treatment-emergent grade 3 or 4 laboratory abnormalities, phase 2 trial

CC(C)[C@@]1(C(=O)N[C@H]2CC(=O)O[C@]2(O)CF)CC(c2nccc3ccccc23)=NO1 [GS-9450]
Arthralgia (adults with NASH [1]; 5 mg (n = 26)): 3 (12) n (%)
Asthenia (adults with NASH [1]; 5 mg (n = 26)): 1 (4) n (%)
Back pain (adults with NASH [1]; 5 mg (n = 26)): 2 (8) n (%)
Constipation (adults with NASH [1]; 5 mg (n = 26)): 0 n (%)
Diarrhea (adults with NASH [1]; 5 mg (n = 26)): 6 (23) n (%)
Dizziness (adults with NASH [1]; 5 mg (n = 26)): 0 n (%)
Dry mouth (adults with NASH [1]; 5 mg (n = 26)): 0 n (%)
Dyspepsia (adults with NASH [1]; 5 mg (n = 26)): 2 (8) n (%)
Fatigue (adults with NASH [1]; 5 mg (n = 26)): 5 (19) n (%)
Gastroesophageal reflux disease (adults with NASH [1]; 5 mg (n = 26)): 0 n (%)
Headache (adults with NASH [1]; 5 mg (n = 26)): 7 (27) n (%)
Nasopharyngitis (adults with NASH [1]; 5 mg (n = 26)): 0 n (%)
Nausea (adults with NASH [1]; 5 mg (n = 26)): 1 (4) n (%)
No. of subjects with at least one AE (adults with NASH [1]; 5 mg (n = 26)): 22 (85) n (%)
Pain in extremity (adults with NASH [1]; 5 mg (n = 26)): 0 n (%)
Somnolence (adults with NASH [1]; 5 mg (n = 26)): 2 (8) n (%)
Total no. of events (AEs) (adults with NASH [1]; 5 mg (n = 26)): 64
frequency of treatment-emergent AEs during the 4-week on-treatment period (adults with NASH [1]; 10 mg): 75%
Abdominal pain (adults with NASH [1]; 10 mg (n = 24)): 1 (4) n (%)
Abdominal pain upper (adults with NASH [1]; 10 mg (n = 24)): 4 (17) n (%)
Arthralgia (adults with NASH [1]; 10 mg (n = 24)): 1 (4) n (%)
Asthenia (adults with NASH [1]; 10 mg (n = 24)): 1 (4) n (%)
Back pain (adults with NASH [1]; 10 mg (n = 24)): 0 n (%)
Constipation (adults with NASH [1]; 10 mg (n = 24)): 0 n (%)
Diarrhea (adults with NASH [1]; 10 mg (n = 24)): 6 (25) n (%)
Dizziness (adults with NASH [1]; 10 mg (n = 24)): 0 n (%)
Dry mouth (adults with NASH [1]; 10 mg (n = 24)): 2 (8) n (%)
Dyspepsia (adults with NASH [1]; 10 mg (n = 24)): 1 (4) n (%)
Fatigue (adults with NASH [1]; 10 mg (n = 24)): 2 (8) n (%)
Gastroesophageal reflux disease (adults with NASH [1]; 10 mg (n = 24)): 0 n (%)
Headache (adults with NASH [1]; 10 mg (n = 24)): 4 (17) n (%)
Nasopharyngitis (adults with NASH [1]; 10 mg (n = 24)): 0 n (%)
Nausea (adults with NASH [1]; 10 mg (n = 24)): 3 (13) n (%)
No. of subjects with at least one AE (adults with NASH [1]; 10 mg (n = 24)): 18 (75) n (%)
Pain in extremity (adults with NASH [1]; 10 mg (n = 24)): 1 (4) n (%)
Somnolence (adults with NASH [1]; 10 mg (n = 24)): 0 n (%)
Total no. of events (AEs) (adults with NASH [1]; 10 mg (n = 24)): 67
frequency of treatment-emergent AEs during the 4-week on-treatment period (adults with NASH [1]; 40 mg): 80%
Abdominal pain (adults with NASH [1]; 40 mg (n = 25)): 1 (4) n (%)
Abdominal pain upper (adults with NASH [1]; 40 mg (n = 25)): 1 (4) n (%)
Arthralgia (adults with NASH [1]; 40 mg (n = 25)): 3 (12) n (%)
Asthenia (adults with NASH [1]; 40 mg (n = 25)): 0 n (%)
Back pain (adults with NASH [1]; 40 mg (n = 25)): 1 (4) n (%)
Constipation (adults with NASH [1]; 40 mg (n = 25)): 2 (8) n (%)
Diarrhea (adults with NASH [1]; 40 mg (n = 25)): 5 (20) n (%)
Dizziness (adults with NASH [1]; 40 mg (n = 25)): 2 (8) n (%)
Dry mouth (adults with NASH [1]; 40 mg (n = 25)): 1 (4) n (%)
Dyspepsia (adults with NASH [1]; 40 mg (n = 25)): 1 (4) n (%)
Fatigue (adults with NASH [1]; 40 mg (n = 25)): 2 (8) n (%)
Gastroesophageal reflux disease (adults with NASH [1]; 40 mg (n = 25)): 3 (12) n (%)
Headache (adults with NASH [1]; 40 mg (n = 25)): 4 (16) n (%)
Nasopharyngitis (adults with NASH [1]; 40 mg (n = 25)): 2 (8) n (%)
Nausea (adults with NASH [1]; 40 mg (n = 25)): 3 (12) n (%)
No. of subjects with at least one AE (adults with NASH [1]; 40 mg (n = 25)): 20 (80) n (%)
Pain in extremity (adults with NASH [1]; 40 mg (n = 25)): 2 (8) n (%)
Somnolence (adults with NASH [1]; 40 mg (n = 25)): 0 n (%)
Total no. of events (AEs) (adults with NASH [1]; 40 mg (n = 25)): 60
subjects who left the study because of a treatment-related AE (adults with NASH [1]; 40 mg, moderate facial flushing from day 1): One subject
overall safety and tolerability (adults with NASH [1]; 4 weeks, 1-40 mg): safe and well tolerated
serious adverse events during the on-treatment period (adults with NASH [1]; all GS-9450 doses, 4 weeks): No serious adverse events; also recorded: no serious AEs (SAEs)
deaths during the study (adults with NASH [1]; all groups): no deaths
drug-induced liver injury (hepatitis C subjects): episodes of drug-induced liver injury attributable to GS-9450 occurred
CK-18 fragments, %Change at Week 4 (adults with NASH [2]; 1 mg once daily): 23 (81) %
CK-18 fragments, Change at Week 2 (adults with NASH [2]; 1 mg once daily): 164 (384) U/L
CK-18 fragments, Change at Week 4 (adults with NASH [2]; 1 mg once daily): 192 (584) U/L
CK-18 fragments, %Change at Week 4 (adults with NASH [2]; 5 mg once daily): 25 (120) %
CK-18 fragments, Change at Week 2 (adults with NASH [2]; 5 mg once daily): −116 (608) U/L
CK-18 fragments, Change at Week 4 (adults with NASH [2]; 5 mg once daily): 96 (641) U/L
CK-18 fragments, %Change at Week 4 (adults with NASH [2]; 10 mg once daily): −26 (38) %
CK-18 fragments, Change at Week 2 (adults with NASH [2]; 10 mg once daily): −460 (866) U/L
CK-18 fragments, Change at Week 4 (adults with NASH [2]; 10 mg once daily): −393 (723) U/L
mean CK-18 fragment levels had decreased to, by week 4 (adults with NASH [2]; 10 mg): 393 (723) U/L
CK-18 fragments, %Change at Week 4 (adults with NASH [2]; 40 mg once daily): −19 (32) %
CK-18 fragments, Change at Week 2 (adults with NASH [2]; 40 mg once daily): −140 (490) U/L
CK-18 fragments, Change at Week 4 (adults with NASH [2]; 40 mg once daily): −125 (212) U/L
mean CK-18 fragment levels had decreased to, by week 4 (adults with NASH [2]; 40 mg): 125 (212) U/L
effect on ALT levels [3]: reductions in alanine aminotransferase (ALT) levels
response as percent of the maximal effect achievable with GS-9450 (week 4 difference in ALT or CK-18 fragments) (adults with NASH [4]): at least 82%
treatment-emergent grade 3 elevated ALT, subjects (adults with NASH [5]; 1 mg, on-treatment): one subject
treatment-emergent grade 3 elevated AST, subjects (adults with NASH [5]; 5 mg): one subject
treatment-emergent grade 3 or 4 elevated serum lipase, subjects (adults with NASH [5]; 5 mg): one subject
treatment-emergent grade 3 or 4 ALT elevations during dosing (adults with NASH [5]; 5, 10, or 40 mg daily, 75 patients): No treatment-emergent grade 3 or 4 ALT elevations
